Values of other authors as cited in US8975284B2, “Co-solvent compositions and methods for improved delivery of dantrolene therapeutic agents” (US WorldMeds LLC, priority 2007, dated 2015).
Like-named read-outs stand apart in the source and are kept apart here.

Key:
[1] = not given; remark: listed apart in the source
[2] = not given; remark: listed apart in the source

| pKa | solubility of free acid form [1] | SMILES | pKa [2] |
| --- | --- | --- | --- |
| about 7.5 | totally insoluble | O=C1CN(N=Cc2ccc(-c3ccc([N+](=O)[O-])cc3)o2)C(=O)N1 [dantrolene, 1-[5-(p-nitrophenyl)furfurylideneamino]hydantoin] | – |
| 7.4 | – | O=C1CN(/N=C/c2ccc(-c3ccc([N+](=O)[O-])cc3)o2)C(=O)[N-]1.[Na+] [Dantrolene sodium, 1-[[5-(p-nitrophenyl)furfurylidene]-amino]hydantoin sodium salt] | – |
| – | – | CC(C)(C)O [TBA, Tertiary Butyl Alcohol] | 15.37 ± 0.29 |
